# Test results published in US9242970B2 (ACTELION PHARMACEUTICALS LTD., priority 2010, dated 2016).
# Like-named read-outs stand apart in the source and are kept apart here.
# Key:
# [1] = target: human orexin-2 receptor (Homo sapiens (Human), UniProt O43614); assay: In vitro assay: intracellular calcium measurements (FLIPR), antagonistic activity; format: cell-based; conditions: CHO cells, 3 nM orexin-A, marked values are geometric means of n = 2-6, read-out: IC50 OX2
# [2] = target: human orexin-1 receptor (Homo sapiens (Human), UniProt O43613); assay: as above; format: cell-based; conditions: CHO cells, 3 nM orexin-A, marked values are geometric means of n = 2-6, read-out: IC50 OX1
# [3] = compound incubation time of 10 min
# Sequence of human orexin-1 receptor (O43613 whole entry): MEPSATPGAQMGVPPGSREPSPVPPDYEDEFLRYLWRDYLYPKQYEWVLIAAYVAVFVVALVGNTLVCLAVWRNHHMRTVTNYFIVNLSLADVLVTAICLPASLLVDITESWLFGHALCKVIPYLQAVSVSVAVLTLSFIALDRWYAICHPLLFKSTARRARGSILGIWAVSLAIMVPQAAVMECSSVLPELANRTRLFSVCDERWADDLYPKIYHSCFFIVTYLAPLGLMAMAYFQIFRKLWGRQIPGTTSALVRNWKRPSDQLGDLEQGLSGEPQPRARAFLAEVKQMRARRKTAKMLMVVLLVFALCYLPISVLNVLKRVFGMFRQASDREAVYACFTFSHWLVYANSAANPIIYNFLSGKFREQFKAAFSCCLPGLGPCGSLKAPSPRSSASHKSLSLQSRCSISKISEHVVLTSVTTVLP
# Sequence of human orexin-2 receptor (O43614 whole entry): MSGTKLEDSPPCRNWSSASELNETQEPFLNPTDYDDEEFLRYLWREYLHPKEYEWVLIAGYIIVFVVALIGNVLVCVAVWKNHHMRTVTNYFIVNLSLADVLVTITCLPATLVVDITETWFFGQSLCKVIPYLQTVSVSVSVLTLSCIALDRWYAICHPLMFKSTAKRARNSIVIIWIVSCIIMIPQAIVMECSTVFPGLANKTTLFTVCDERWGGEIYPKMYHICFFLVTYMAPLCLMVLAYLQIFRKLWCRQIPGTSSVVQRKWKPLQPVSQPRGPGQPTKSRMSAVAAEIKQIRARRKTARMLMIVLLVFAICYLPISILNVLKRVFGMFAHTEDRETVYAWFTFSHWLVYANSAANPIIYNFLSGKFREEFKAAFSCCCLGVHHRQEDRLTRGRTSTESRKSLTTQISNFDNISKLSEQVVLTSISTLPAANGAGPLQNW
SMILES,IC50 ([1]; compound incubation 120 min),IC50 ([2]; compound incubation 120 min),"IC50 [1, 3]","IC50 [2, 3]"
"CC1CC(c2ccccc2-c2ccccc2)N(Cc2ccc(OC(F)(F)F)cc2)C1=O (centres unmarked) [Example 291, 5-([1,1′-biphenyl]-2-yl)-3-methyl-1-(4-(trifluoromethoxy)benzyl)pyrrolidin-2-one]",457 nM,2050 nM,,
"CCOc1ccccc1[C@@H]1C[C@@H](O)C(=O)N1Cc1ccc(OC(F)(F)F)cc1 (racemic) [Example 299, rac-(3R*,5S*)-5-(2-ethoxyphenyl)-3-hydroxy-1-(4-(trifluoromethoxy)benzyl)pyrrolidin-2-one]",170 nM,1860 nM,,
"COc1ccc2cc(CN3C(=O)CCCC3c3c(OC)cccc3OC)ccc2c1 (centres unmarked) [Example 171, 6-(2,6-dimethoxyphenyl)-1-((6-methoxynaphthalen-2-yl)methyl)piperidin-2-one]",,,66 nM,122 nM
"COc1cccc(OC)c1C1CCCC(=O)N1Cc1ccc(N2CCCC2)cc1 (centres unmarked) [Example 245, 6-(2,6-dimethoxyphenyl)-1-(4-(pyrrolidin-1-yl)benzyl)piperidin-2-one]",,,132 nM,1070 nM
"COc1cccc(OC)c1C1CCCC(=O)N1Cc1cccc(OC(F)F)n1 (centres unmarked) [Example 183, 1-((6-(difluoromethoxy)pyridin-2-yl)methyl)-6-(2,6-dimethoxyphenyl)piperidin-2-one]",,,64 nM,644 nM
"COc1cccc(OC)c1C1CC(C)C(=O)N1Cc1cccc(-c2csc(C)n2)c1 (centres unmarked) [Example 133, 5-(2,6-dimethoxyphenyl)-3-methyl-1-(3-(2-methylthiazol-4-yl)benzyl)pyrrolidin-2-one]",24 nM,2 nM,,
"COc1cccc(OC)c1C1CCCC(=O)N1Cc1ccc(C(F)(F)F)cc1 (centres unmarked) [Example 163, 6-(2,6-dimethoxyphenyl)-1-(4-(trifluoromethyl)benzyl)piperidin-2-one]",,,171 nM,1190 nM
"COc1cccc(OC)c1C1CC(C)C(=O)N1Cc1cccc(OCC(F)(F)F)c1 (centres unmarked) [Example 417, 5-(2,6-dimethoxyphenyl)-3-methyl-1-(3-(2,2,2-trifluoroethoxy)benzyl)pyrrolidin-2-one]",110 nM,123 nM,,
"COc1cccc(OC)c1C1CCCC(=O)N1Cc1cncc(-c2ccccc2)c1 (centres unmarked) [Example 8, 6-(2,6-dimethoxyphenyl)-1-((5-phenylpyridin-3-yl)methyl)piperidin-2-one]",700 nM,1700 nM,,
"COc1cccc(OC)c1C1CCCC(=O)N1Cc1cccc(-n2ccnn2)c1 (centres unmarked) [Example 46, 1-(3-(1H-1,2,3-triazol-1-yl)benzyl)-6-(2,6-dimethoxyphenyl)piperidin-2-one]",239 nM,440 nM,,
"COc1cccc(OC)c1C1CCCC(=O)N1Cc1cccc(-c2ncc(C)s2)c1 (centres unmarked) [Example 43, 6-(2,6-dimethoxyphenyl)-1-(3-(5-methylthiazol-2-yl)benzyl)piperidin-2-one]",6 nM,6 nM,,
"COc1cccc(OC)c1C1CCCC(=O)N1Cc1ccc2c(c1)nnn2C (centres unmarked) [Example 243, 6-(2,6-dimethoxyphenyl)-1-((1-methyl-1H-benzo[d][1,2,3]triazol-5-yl)methyl)piperidin-2-one]",,,311 nM,10100 nM
"Cc1nc(-c2cccc(CN3C(=O)C(C)CC3c3ccccc3-c3ccccc3)c2)cs1 (centres unmarked) [Example 290, 5-([1,1′-biphenyl]-2-yl)-3-methyl-1-(3-(2-methylthiazol-4-yl)benzyl)pyrrolidin-2-one]",455 nM,103 nM,,
"COc1cccc(OC)c1C1CCCCC(=O)N1Cc1cnn(-c2ccccc2)c1 (centres unmarked) [Example 94, 7-(2,6-dimethoxyphenyl)-1-((1-phenyl-1H-pyrazol-4-yl)methyl)azepan-2-one]",378 nM,121 nM,,
"O=C1CCCC(c2ccccc2-c2ccccc2)N1Cc1cccc(-c2ccccc2)c1 (centres unmarked) [Example 284, 6-([1,1′-biphenyl]-2-yl)-1-([1,1′-biphenyl]-3-ylmethyl)piperidin-2-one]",722 nM,1450 nM,,
"CCOc1ccccc1C1CCC(=O)N1Cc1ccc(F)cc1 (centres unmarked) [Example 194, 5-(2-ethoxyphenyl)-1-(4-fluorobenzyl)pyrrolidin-2-one]",,,669 nM,> 12700 nM
"COc1cccc(OC)c1C1CC(C)(C)CC(=O)N1Cc1ccc(OC(F)(F)F)cc1 (centres unmarked) [Example 174, 6-(2,6-dimethoxyphenyl)-4,4-dimethyl-1-(4(trifluoromethoxy)benzyl)piperidin-2-one]",,,1080 nM,1800 nM
"COc1cccc(OC)c1C1CC(C)C(=O)N1Cc1cccc(-c2cccnc2)c1 (centres unmarked) [Example 141, 5-(2,6-dimethoxyphenyl)-3-methyl-1-(3-(pyridin-3-yl)benzyl)pyrrolidin-2-one]",28 nM,35 nM,,
"O=C1CCCCC(c2ccccc2-c2cncs2)N1Cc1cccc(-c2nccs2)c1 (centres unmarked) [Example 451, 1-(3-(thiazol-2-yl)benzyl)-7-(2-(thiazol-5-yl)phenyl)azepan-2-one]",19 nM,427 nM,,

SMILES,IC50 ([1]; compound incubation 120 min),IC50 ([2]; compound incubation 120 min),"IC50 [1, 3]","IC50 [2, 3]"
"Cc1ccc(F)c(C2CCCC(=O)N2Cc2ccc(OC(F)(F)F)cc2)c1F (centres unmarked) [Example 226, 6-(2,6-difluoro-3-methylphenyl)-1-(4-(trifluoromethoxy)benzyl)piperidin-2-one]",,,2440 nM,5180 nM
"COc1cccc(OC)c1C1COCC(=O)N1Cc1ccc(OC(F)(F)F)cc1 (centres unmarked) [Example 266, 5-(2,6-dimethoxyphenyl)-4-(4-(trifluoromethoxy)benzyl)morpholin-3-one]",,,86 nM,412 nM
"CCOc1cccc(F)c1[C@@H]1C[C@@H](Cl)C(=O)N1Cc1ccc(OC(F)(F)F)cc1 (racemic) [Example 333, rac-(3R*,5S*)-3-chloro-5-(2-ethoxy-6-fluorophenyl)-1-(4-(trifluoromethoxy)benzyl)pyrrolidin-2-one]",184 nM,965 nM,,
"COc1cccc(OC)c1C1CCCC(=O)N1Cc1ccc2sccc2c1 (centres unmarked) [Example 250, 1-(benzo[b]thiophen-5-ylmethyl)-6-(2,6-dimethoxyphenyl)piperidin-2-one]",,,140 nM,204 nM
"COc1ccnc(OC)c1C1CC(C)C(=O)N1Cc1cccc(-c2csc(C)n2)c1 (centres unmarked) [Example 356, 5-(2,4-dimethoxypyridin-3-yl)-3-methyl-1-(3-(2-methylthiazol-4-yl)benzyl)pyrrolidin-2-one]",113 nM,30 nM,,
"COc1cccc(OC)c1C1CCC(=O)N1Cc1cnc2ccccc2c1 (centres unmarked) [Example 109, 5-(2,6-dimethoxyphenyl)-1-(quinolin-3-ylmethyl)pyrrolidin-2-one]",,,44 nM,227 nM
"COc1cccc(OC)c1C1CC(C)C(=O)N1Cc1cccc(OC(F)(F)F)c1 (centres unmarked) [Example 200, 5-(2,6-dimethoxyphenyl)-3-methyl-1-(3-(trifluoromethoxy)benzyl)pyrrolidin-2-one]",,,108 nM,108 nM
"COc1cccc(OC)c1C1CC(C)C(=O)N1Cc1ccnc(OC(F)F)c1 (centres unmarked) [Example 202, 1-((2-(difluoromethoxy)pyridin-4-yl)methyl)-5-(2,6-dimethoxyphenyl)-3-methylpyrrolidin-2-one]",,,923 nM,224 nM
"COc1cccc(OC)c1C1CCCC(=O)N1Cc1ccc2nccnc2c1 (centres unmarked) [Example 20, 6-(2,6-dimethoxyphenyl)-1-(quinoxalin-6-ylmethyl)piperidin-2-one]",864 nM,952 nM,,
"COc1cccc(OC)c1C1CC(C)C(=O)N1Cc1ccc2c(ccn2C)c1 (centres unmarked) [Example 391, 5-(2,6-dimethoxyphenyl)-3-methyl-1-((1-methyl-1H-indol-5-yl)methyl)pyrrolidin-2-one]",529 nM,175 nM,,
"COc1cccc(OC)c1C1CCC(=O)N1Cc1cccc(-c2cccnc2)c1 (centres unmarked) [Example 115, 5-(2,6-dimethoxyphenyl)-1-(3-(pyridin-3-yl)benzyl)pyrrolidin-2-one]",249 nM,217 nM,,
"COc1ccc2c(c1C1CCCC(=O)N1Cc1cccc(-c3ccccc3)c1)OCO2 (centres unmarked) [Example 457, 1-([1,1′-biphenyl]-3-ylmethyl)-6-(5-methoxybenzo[d][1,3]dioxol-4-yl)piperidin-2-one]",30 nM,59 nM,,
"COc1cccc(C)c1[C@@H]1C[C@@H](O)C(=O)N1Cc1ccc(OC(F)(F)F)cc1 (racemic) [Example 309, rac-(3R*,5S*)-3-hydroxy-5-(2-methoxy-6-methylphenyl)-1-(4-(trifluoromethoxy)benzyl)pyrrolidin-2-one]",887 nM,2220 nM,,
"COc1cccc(OC)c1C1CCCC(=O)N1Cc1cccc(-c2ccccc2)c1 (centres unmarked) [Example 189, 1-([1,1′-biphenyl]-3-ylmethyl)-6-(2,6-dimethoxyphenyl)piperidin-2-one]",12 nM,17 nM,,
"COc1cccc(OC)c1C1CCCC(=O)N1Cc1cc(-c2ccccn2)ccc1F (centres unmarked) [Example 40, 6-(2,6-dimethoxyphenyl)-1-(2-fluoro-5-(pyridin-2-yl)benzyl)piperidin-2-one]",696 nM,75 nM,,
"CCOc1ccccc1[C@@H]1C[C@H](Cl)C(=O)N1Cc1ccc(OC(F)(F)F)cc1 (racemic) [Example 304, rac-(3S*,5S*)-3-chloro-5-(2-ethoxyphenyl-1-(4-(trifluoromethoxy)benzyl)pyrrolidin-2-one]",129 nM,615 nM,,
"COc1cccc(OC)c1C1CC(C)C(=O)N1Cc1cccc(N2CCCCC2)c1 (centres unmarked) [Example 134, 5-(2,6-dimethoxyphenyl)-3-methyl-1-(3-(piperidin-1-yl)benzyl)pyrrolidin-2-one]",157 nM,37 nM,,
"COc1cc(F)cc(OC)c1C1CCCC(=O)N1Cc1ccc(OC(F)(F)F)cc1 (centres unmarked) [Example 232, 6-(4-fluoro-2,6-dimethoxyphenyl)-1-(4-(trifluoromethoxy)benzyl)piperidin-2-one]",,,27 nM,270 nM
